pEC50: −log10 of the molar value.
Experiments:
[1] = system: Human immunodeficiency virus 1; experiment: Effective concentration required for in vitro inhibitory activity against HIV-1; IA is Inactive; type: functional, organism-based
[2] = system: Human immunodeficiency virus 1; experiment: Effective concentration required for in vitro inhibitory activity against HIV-1; type: functional, organism-based

EC50 [1]	pEC50 [2]	SMILES
Not Active		CCCc1cc(=O)oc2c3c(c4c(c12)OC(C)(C)C=C4)O[C@H](C)[C@@H](C)[C@H]3O [(+)-CALANOLIDE B]
Not Active		CCCc1cc(=O)oc2c3c(c4c(c12)OC(C)(C)C=C4)O[C@@H](C)[C@H](C)[C@H]3O [(-)-CALANOLIDE A]
	6.70	CCCc1cc(=O)oc2c3c(c4c(c12)OC(C)(C)C=C4)O[C@H](C)[C@@H](C)[C@@H]3O [CALANOLIDE A]
	6.52	CCCc1cc(=O)oc2c3c(c4c(c12)OC(C)(C)C=C4)O[C@@H](C)[C@H](C)[C@@H]3O [COSTATOLIDE]

From ChEMBL document CHEMBL1128885, “Resolution and comparative anti-HIV evaluation of the enantiomers of calanolides A and B” (Bioorg Med Chem Lett, 1995)
